Patent US10647713B2 (Nimbus Lakshmi, Inc., priority 2016, dated 2020)

Molecular target: human TYK2 (JH2domain-pseudokinase) (Homo sapiens (Human), UniProt P29597)
Assay: TYK2 JH2 Domain Binding Assay (KINOMEscan, DiscoveRx)
Conditions: 11-point dilution, duplicate
Procedure, shortened: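 TYK2 JH2 (G556–D888)–NFkB DBD fusion, DNA-tagged, from HEK293 extracts (<0.1 nM) competed against immobilised biotinylated ligand for 1 h at room temperature, 0.9% DMSO. Bead-retained kinase quantified by qPCR; Kd from 11-point 3-fold series (top 30,000 nM, duplicate), Hill fit with slope −1.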

human TYK2 (JH2domain-pseudokinase), sequence (P29597 556-888): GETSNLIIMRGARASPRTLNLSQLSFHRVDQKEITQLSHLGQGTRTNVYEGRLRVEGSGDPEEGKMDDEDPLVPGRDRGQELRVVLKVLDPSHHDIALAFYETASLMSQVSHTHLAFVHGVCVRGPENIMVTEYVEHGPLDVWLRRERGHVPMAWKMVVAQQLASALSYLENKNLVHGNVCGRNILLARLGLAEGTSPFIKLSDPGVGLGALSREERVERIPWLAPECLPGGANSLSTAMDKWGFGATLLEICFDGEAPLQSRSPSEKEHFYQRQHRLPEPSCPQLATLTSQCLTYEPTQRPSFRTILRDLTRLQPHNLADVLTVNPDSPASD

Row | Compound | Kd
1 | Cc1nc2c(Nc3ccc(C4CCC(C)(C)O4)cc3S(C)(=O)=O)cc(NC(=O)C3CC3)nc2[nH]1 (stereo not shown) [I-330, N-(7-((4-(5,5-dimethyltetrahydrofuran-2-yl)-2-(methylsulfonyl)phenyl)amino)-2-methyl-3H-imidazo[4,5-b]pyridin-5-yl)cyclopropanecarboxamide] | 100 to 500 pM
2 | COc1c(Nc2cc(Nc3cncc(C#N)n3)nc3[nH]c(C(F)F)nc23)cccc1-c1nnn(C)n1 [I-30, 6-((2-(difluoromethyl)-7-((2-methoxy-3-(2-methyl-2H-tetrazol-5-yl)phenyl)amino)-3H-imidazo[4,5-b]pyridin-5-yl)amino)pyrazine-2-carbonitrile] | 1000 to 10000 pM
3 | COCCCn1ccc(-c2ccc(Nc3cc(NC(=O)C4CC4)nc4[nH]c(C)nc34)c(S(C)(=O)=O)c2)n1 [I-502, N-(7-((4-(1-(3-methoxypropyl)-1H-pyrazol-3-yl)-2-(methylsulfonyl)phenyl)amino)-2-methyl-3H-imidazo[4,5-b]pyridin-5-yl)cyclopropanecarboxamide] | 100 to 500 pM
4 | CS(=O)(=O)c1cc([C@H]2CCC(F)(F)CO2)ccc1Nc1cc(NC(=O)C2CC2)nc2[nH]c(C(F)F)nc12 [I-593, (R)—N-(2-(difluoromethyl)-7-((4-(5,5-difluorotetrahydro-2H-pyran-2-yl)-2-(methylsulfonyl)phenyl)amino)-3H-imidazo[4,5-b]pyridin-5-yl)cyclopropanecarboxamide] | 1000 to 10000 pM
5 | Cc1nc2c(Nc3ccc([C@H]4CCC(F)(F)CO4)cc3S(C)(=O)=O)cc(NC(=O)C3CC3)nc2[nH]1 [I-615, (R)—N-(7-((4-(5,5-difluorotetrahydro-2H-pyran-2-yl)-2-(methylsulfonyl)phenyl)amino)-2-methyl-3H-imidazo[4,5-b]pyridin-5-yl)cyclopropanecarboxamide] | 500 to 1000 pM
6 | CN(c1ccccc1Nc1cc(Nc2cccc(C#N)n2)nc2[nH]c(C(F)F)nc12)S(=O)(=O)C1CC1 [I-179] | 100 to 500 pM
7 | COc1ccccc1Nc1cc(Nc2ccc(N3CCC4(CCOCC4)CC3)cn2)nc2[nH]c(C(F)F)nc12 [I-136, N5-(5-(3-oxa-9-azaspiro[5.5]undecan-9-yl)pyridin-2-yl)-2-(difluoromethyl)-N7-(2-methoxyphenyl)-3H-imidazo[4,5-b]pyridine-5,7-diamine] | > 10000 pM
8 | Cc1nc2c(Nc3ccc(C4CCOCC4)cc3N(C)S(C)(=O)=O)cc(NC(=O)C3CC3)nc2[nH]1 [I-196, N-(2-methyl-7-((2-(N-methylmethylsulfonamido)-4-(tetrahydro-2H-pyran-4-yl)phenyl)amino)-3H-imidazo[4,5-b]pyridin-5-yl)cyclopropanecarboxamide] | 500 to 1000 pM
9 | COc1c(Nc2cc(NC(=O)C3CC3)nc3[nH]c(C(F)F)nc23)cccc1-n1nc(C)nc1C [I-54, N-(2-(difluoromethyl)-7-((3-(3,5-dimethyl-1H-1,2,4-triazol-1-yl)-2-methoxyphenyl)amino)-3H-imidazo[4,5-b]pyridin-5-yl)cyclopropanecarboxamide] | > 10000 pM
10 | Cc1nc2c(Nc3ccc(C4=NC(C)(C)CS4)cc3S(C)(=O)=O)cc(NC(=O)C3CC3(F)F)nc2[nH]1 (stereo not shown) [I-346] | > 10000 pM
11 | CS(=O)(=O)c1cc(Cl)ccc1Nc1cc(Nc2cccc(C#N)n2)nc2[nH]c(C(F)F)nc12 [I-191, 6-((7-((4-chloro-2-(methylsulfonyl)phenyl)amino)-2-(difluoromethyl)-3H-imidazo[4,5-b]pyridin-5-yl)amino)picolinonitrile] | 500 to 1000 pM
12 | CS(=O)(=O)c1cc([C@@H]2CCCCO2)ccc1Nc1cc(Nc2cccc(C(F)(F)F)n2)nc2[nH]c(C(F)F)nc12 [I-518, (S)-2-(difluoromethyl)-N7-(2-(methylsulfonyl)-4-(tetrahydro-2H-pyran-2-yl)phenyl)-N5-(6-(trifluoromethyl)pyridin-2-yl)-3H-imidazo[4,5-b]pyridine-5,7-diamine] | 1000 to 10000 pM
13 | Cc1nc2c(Nc3ccc(C4=NC(C)(C)CO4)cc3S(C)(=O)=O)cc(NC(=O)[C@H]3C[C@H]3F)nc2[nH]1 [I-339, (1R,2R)—N-(7-((4-(4,4-dimethyl-4,5-dihydrooxazol-2-yl)-2-(methylsulfonyl)phenyl)amino)-2-methyl-3H-imidazo[4,5-b]pyridin-5-yl)-2-fluorocyclopropane-1-carboxamide] | 1000 to 10000 pM
14 | CC1(C)CC[C@H](c2ccc(Nc3cc(NC(=O)C4CC4)nc4[nH]c(C(F)F)nc34)c(S(C)(=O)=O)c2)OC1 [I-354] | 1000 to 10000 pM
15 | Cc1nc2c(Nc3ccc([C@@H]4CCCO4)cc3S(C)(=O)=O)cc(NC(=O)[C@H]3CC3(F)F)nc2[nH]1 [I-427, (R)-2,2-difluoro-N-(2-methyl-7-((2-(methylsulfonyl)-4-((S)-tetrahydrofuran-2-yl)phenyl)amino)-3H-imidazo[4,5-b]pyridin-5-yl)cyclopropane-1-carboxamide] | 100 to 500 pM
16 | Cc1c(-c2ccc(Nc3cc(NC(=O)C4CC4)nc4[nH]c(C(F)F)nc34)c(S(C)(=O)=O)c2)nn(C)c1C [I-350] | 100 to 500 pM

More lines, now with the values ahead:

Row | Kd | Compound
17 | 100 to 500 pM | CS(=O)(=O)c1cc([C@@H]2CCCOC2)ccc1Nc1cc(NC(=O)C2CC2)nc2[nH]c(C(F)F)nc12 [I-253, (S)—N-(2-(difluoromethyl)-7-((2-(methylsulfonyl)-4-(tetrahydro-2H-pyran-3-yl)phenyl)amino)-3H-imidazo[4,5-b]pyridin-5-yl)cyclopropanecarboxamide]
18 | 100 to 500 pM | Cn1ccc(-c2ccc(Nc3cc(NC(=O)[C@H]4C[C@@H]4F)nc4[nH]c(C(F)F)nc34)c(S(C)(=O)=O)c2)n1 [I-371, (1R,2S)—N-(2-(difluoromethyl)-7-((4-(1-methyl-1H-pyrazol-3-yl)-2-(methylsulfonyl)phenyl)amino)-3H-imidazo[4,5-b]pyridin-5-yl)-2-fluorocyclopropane-1-carboxamide]
19 | 100 to 500 pM | Cc1cc(Nc2cc(Nc3ccc(-c4ccn(C5CC5)n4)cc3S(C)(=O)=O)c3nc(C(F)F)[nH]c3n2)nc(C)n1 [I-527]
20 | 100 to 500 pM | Cn1cnc(-c2ccc(Nc3cc(NC(=O)C4CC4)nc4[nH]c(C(F)F)nc34)c(S(C)(=O)=O)c2)c1 [I-62, N-(2-(difluoromethyl)-7-((4-(1-methyl-1H-imidazol-4-yl)-2-(methylsulfonyl)phenyl)amino)-3H-imidazo[4,5-b]pyridin-5-yl)cyclopropanecarboxamide]
21 | 100 to 500 pM | CN(c1cc(C2CC2)ccc1Nc1cc(NC(=O)C2CC2)nc2[nH]c(C(F)F)nc12)S(C)(=O)=O [I-183, N-(7-((4-cyclopropyl-2-(N-methylmethylsulfonamido)phenyl)amino)-2-(difluoromethyl)-3H-imidazo[4,5-b]pyridin-5-yl)cyclopropanecarboxamide]
22 | 100 to 500 pM | Cc1ncc(Nc2cc(Nc3ccc([C@H]4CCCCO4)cc3S(C)(=O)=O)c3nc(C(F)F)[nH]c3n2)nc1C [I-486, (R)-2-(difluoromethyl)-N5-(5,6-dimethylpyrazin-2-yl)-N7-(2-(methylsulfonyl)-4-(tetrahydro-2H-pyran-2-yl)phenyl)-3H-imidazo[4,5-b]pyridine-5,7-diamine]
23 | 100 to 500 pM | Cc1ncc(Nc2cc(Nc3ccc(C4CCCCO4)cc3S(C)(=O)=O)c3nc(C(F)F)[nH]c3n2)nc1C (stereo not shown) [I-397, 2-(difluoromethyl)-N5-(5,6-dimethylpyrazin-2-yl)-N7-(2-(methylsulfonyl)-4-(tetrahydro-2H-pyran-2-yl)phenyl)-3H-imidazo[4,5-b]pyridine-5,7-diamine]
24 | 100 to 500 pM | Cc1cn(C)nc1-c1ccc(Nc2cc(NC(=O)[C@H]3C[C@H]3F)nc3[nH]c(C(F)F)nc23)c(S(C)(=O)=O)c1 [I-407, (1R,2R)—N-(2-(difluoromethyl)-7-((4-(1,4-dimethyl-1H-pyrazol-3-yl)-2-(methylsulfonyl)phenyl)amino)-3H-imidazo[4,5-b]pyridin-5-yl)-2-fluorocyclopropane-1-carboxamide]
25 | 100 to 500 pM | Cc1nc2c(Nc3ccc([C@@H]4CCCCO4)cc3S(C)(=O)=O)cc(Nc3cnc(C)c(C)n3)nc2[nH]1 [I-475, (S)—N5-(5,6-dimethylpyrazin-2-yl)-2-methyl-N7-(2-(methylsulfonyl)-4-(tetrahydro-2H-pyran-2-yl)phenyl)-3H-imidazo[4,5-b]pyridine-5,7-diamine]
26 | < 100 pM | Cc1nc2c(Nc3ccccc3S(C)(=O)=O)cc(Nc3ccc4c(n3)C(F)(F)CC4)nc2[nH]1 [I-618, N5-(7,7-difluoro-6,7-dihydro-5H-cyclopenta[b]pyridin-2-yl)-2-methyl-N7-(2-(methylsulfonyl)phenyl)-3H-imidazo[4,5-b]pyridine-5,7-diamine]
27 | < 100 pM | Cc1cc(Nc2cc(Nc3ccc(-c4nn(C)cc4C)cc3S(C)(=O)=O)c3nc(C)[nH]c3n2)nc(C)n1 [I-511, N7-(4-(1,4-dimethyl-1H-pyrazol-3-yl)-2-(methylsulfonyl)phenyl)-N5-(2,6-dimethylpyrimidin-4-yl)-2-methyl-3H-imidazo[4,5-b]pyridine-5,7-diamine]
28 | 100 to 500 pM | Cc1nc2c(Nc3ccc(-c4ccn(C)n4)cc3S(C)(=O)=O)cc(NC(=O)[C@H]3C[C@H]3F)nc2[nH]1 [I-225, (1R,2R)-2-fluoro-N-(2-methyl-7-((4-(1-methyl-1H-pyrazol-3-yl)-2-(methylsulfonyl)phenyl)amino)-3H-imidazo[4,5-b]pyridin-5-yl)cyclopropane-1-carboxamide]
29 | < 100 pM | Cc1nc2c(Nc3ccc(-c4nn(C)cc4C)cc3S(C)(=O)=O)cc(NC(=O)[C@H]3C[C@H]3F)nc2[nH]1 [I-263, (1R,2R)—N-(7-((4-(1,4-dimethyl-1H-pyrazol-3-yl)-2-(methylsulfonyl)phenyl)amino)-2-methyl-3H-imidazo[4,5-b]pyridin-5-yl)-2-fluorocyclopropane-1-carboxamide]
30 | < 100 pM | Cc1nc2c(Nc3ccc(-c4cnn(C)c4C)cc3S(C)(=O)=O)cc(Nc3cc4n(n3)CCOC4)nc2[nH]1 [I-492, N5-(6,7-dihydro-4H-pyrazolo[5,1-c][1,4]oxazin-2-yl)-N7-(4-(1,5-dimethyl-1H-pyrazol-4-yl)-(methylsulfonyl)phenyl)-2-methyl-3H-imidazo[4,5-b]pyridine-5,7-diamine]
31 | < 100 pM | CCOc1ccc(Nc2cc(Nc3ccccc3S(C)(=O)=O)c3nc(C)[nH]c3n2)nc1C#N [I-525]
